What was measured:
Jily = experiment: MTS proliferation assay, Jily; assay type: cell-based; details: 72 h incubation, read-out: MTS proliferation assay IC 50 Jily
Procedure: Cell lines are cultured in RPMI-1640 tissue culture medium containing either 5% or 10% fetal calf serum, 0.05 mM 2-mercaptoethanol, 2 mM glutamine and penicillin/streptomycin 50 μg/ml (complete medium) (Sigma, Buchs, Switzerland). General growth conditions are 37° C. and 7.5% CO2.
The assay is performed in 96 well tissue culture plates. The cells (range: 1.5*10^3-10^4) are seeded out in 80 μl complete medium 24 h prior to compound treatment. The test compounds are added in 20 μl complete medium containing max 5% DMSO. The final compound concentrations in the assays are 10 μM, 3 μM, 1 μM and 0.3 μM, respectively. The assay plates are incubated for 72 h at culture conditions. The MTS reagent is prepared according to the manufacturer's protocol (Promega G1111). 20 μl MTS reagent are added to each well, the assay plates are quickly spun and incubated for another 3 h at culture conditions. Subsequently, the plates are shortly shaked and absorption measured with a microplate-reader at 492 nm.

HT1080 = experiment: MTS proliferation assay, HT1080; assay type: cell-based, human; details: HT1080, 72 h incubation; read-out: MTS proliferation assay IC 50 HT1080
Method in brief: (§1)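 Absorbance at 492 nm after 3 h with MTS reagent gave the proliferation read-out. Before that, cells in RPMI-1640 complete medium (5% or 10% FCS) were treated 72 h with compound at four final concentrations, 0.3 to 10 μM.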

HeLa = experiment: MTS proliferation assay, HeLa; assay type: cell-based, human; details: 72 h incubation, read-out: MTS proliferation assay IC 50 HeLa
Method in brief: as §1

MRC5 = experiment: MTS proliferation assay, MRC5; assay type: cell-based; details: MRC5, 72 h incubation; read-out: MTS proliferation assay IC 50 MRC5
Method in brief: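 Read-out: MTS absorbance at 492 nm after 3 h reagent incubation. Before that, cells grew 72 h at 37° C/7.5% CO2 with test compounds at final concentrations of 10 μM, 3 μM, 1 μM and 0.3 μM, added 24 h post-seeding.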

[1] = test system: adherent cells or suspension cells; experiment: Hoechst 33342 nuclear staining (fraction of apoptotic nuclei); assay type: cell-based; parameters: key: 0 relating to no activity; 1 relating to weak activity comprising less than 70% of the cells; score 2 relating to strong activity comprising more than 70% of the cells

Compound	IC50 (Jily) [nM]	IC50 (HT1080) [nM]	IC50 (HeLa) [nM]	IC50 (MRC5) [nM]	Hoechst 33342 nuclear staining score ([1]; H460, conc 0.01 μm)	Hoechst 33342 nuclear staining score ([1]; H460, conc 0.1 μm)	Hoechst 33342 nuclear staining score ([1]; H460, conc 1 μm)	Hoechst 33342 nuclear staining score ([1]; HeLa, conc 0.01 μm)	Hoechst 33342 nuclear staining score ([1]; HeLa, conc 0.1 μm)	Hoechst 33342 nuclear staining score ([1]; HeLa, conc 1 μm)	Hoechst 33342 nuclear staining score ([1]; Jily, conc 0.01 μm)	Hoechst 33342 nuclear staining score ([1]; Jily, conc 0.1 μm)	Hoechst 33342 nuclear staining score ([1]; Jily, conc 1 μm)	Hoechst 33342 nuclear staining score ([1]; Jurkat, conc 0.01 μm)	Hoechst 33342 nuclear staining score ([1]; Jurkat, conc 0.1 μm)	Hoechst 33342 nuclear staining score ([1]; Jurkat, conc 1 μm)	Hoechst 33342 nuclear staining score ([1]; MRC5, conc 0.01 μm)	Hoechst 33342 nuclear staining score ([1]; MRC5, conc 0.1 μm)	Hoechst 33342 nuclear staining score ([1]; MRC5, conc 1 μm)	Hoechst 33342 nuclear staining score ([1]; PBLs, conc 0.01 μm)	other results
CCc1ccc(C(=O)Cn2c(-c3nonc3NCCC#N)nc3ccccc32)cc1 [Example 56]	10 to 100	10 to 100	10 to 100	10 to 100	0	0	2 (score 2 relating to strong activity comprising more than 70% of the cells)	0	1 (1 relating to weak activity comprising less than 70% of the cells)	2 (score 2 relating to strong activity comprising more than 70% of the cells)	0	2 (score 2 relating to strong activity comprising more than 70% of the cells)	2 (score 2 relating to strong activity comprising more than 70% of the cells)	0	2 (score 2 relating to strong activity comprising more than 70% of the cells)	2 (score 2 relating to strong activity comprising more than 70% of the cells)	0	1 (1 relating to weak activity comprising less than 70% of the cells)	1 (1 relating to weak activity comprising less than 70% of the cells)	0	Hoechst 33342 nuclear staining score ([1]; PBLs, conc 0.1 μm): 0; Hoechst 33342 nuclear staining score ([1]; PBLs, conc 1 μm): 0
Nc1nonc1-c1nc2ccccc2n1CC(=O)c1cc(F)ccc1F [Example 71]	100 to 1000	> 1000	100 to 1000	> 1000	0	0	0	0	0	0	0	0	1 (1 relating to weak activity comprising less than 70% of the cells)	0	0	2 (score 2 relating to strong activity comprising more than 70% of the cells)	0	0	0	0	Hoechst 33342 nuclear staining score ([1]; PBLs, conc 0.1 μm): 0; Hoechst 33342 nuclear staining score ([1]; PBLs, conc 1 μm): 0
Cc1ccc(OCn2c(-c3nonc3N)nc3ccccc32)cc1C [Example 101]	10 to 100	10 to 100	10 to 100	10 to 100	0	1 (1 relating to weak activity comprising less than 70% of the cells)	2 (score 2 relating to strong activity comprising more than 70% of the cells)	0	1 (1 relating to weak activity comprising less than 70% of the cells)	2 (score 2 relating to strong activity comprising more than 70% of the cells)	0	1 (1 relating to weak activity comprising less than 70% of the cells)	2 (score 2 relating to strong activity comprising more than 70% of the cells)	0	2 (score 2 relating to strong activity comprising more than 70% of the cells)	2 (score 2 relating to strong activity comprising more than 70% of the cells)	0	1 (1 relating to weak activity comprising less than 70% of the cells)	1 (1 relating to weak activity comprising less than 70% of the cells)	0	Hoechst 33342 nuclear staining score ([1]; PBLs, conc 0.1 μm): 0; Hoechst 33342 nuclear staining score ([1]; PBLs, conc 1 μm): 0
Nc1nonc1-c1nc2ccccc2n1COc1cc(C(F)(F)F)cc(C(F)(F)F)c1 [Example 102]	100 to 1000	> 1000	> 1000	100 to 1000	0	0	1 (1 relating to weak activity comprising less than 70% of the cells)	0	0	0	0	0	1 (1 relating to weak activity comprising less than 70% of the cells)	0	0	2 (score 2 relating to strong activity comprising more than 70% of the cells)	0	0	0	0	Hoechst 33342 nuclear staining score ([1]; PBLs, conc 0.1 μm): 0; Hoechst 33342 nuclear staining score ([1]; PBLs, conc 1 μm): 0
Nc1nonc1-c1nc2ccccc2n1COc1cccc(C(F)(F)F)c1 [Example 103]	10 to 100	100 to 1000	100 to 1000	100 to 1000	0	0	2 (score 2 relating to strong activity comprising more than 70% of the cells)	0	0	2 (score 2 relating to strong activity comprising more than 70% of the cells)	0	0	2 (score 2 relating to strong activity comprising more than 70% of the cells)	0	1 (1 relating to weak activity comprising less than 70% of the cells)	2 (score 2 relating to strong activity comprising more than 70% of the cells)	0	0	1 (1 relating to weak activity comprising less than 70% of the cells)	0	Hoechst 33342 nuclear staining score ([1]; PBLs, conc 0.1 μm): 0; Hoechst 33342 nuclear staining score ([1]; PBLs, conc 1 μm): 0
